Results published in PMC7409209, “Biosynthesis and Antimicrobial Activity of Pseudodesmin and Viscosinamide Cyclic Lipopeptides Produced by Pseudomonads Associated with the Cocoyam Rhizosphere” (Microorganisms, 2020).

What was measured:
[1] = test system: R. solani AG2-2 CuHav-Rs18; assay: Fungal plug-CLP droplet assay (growth inhibition and microscopy); format: cell-based
Text: (§1) The cocoyam rhizosphere isolate, P. myriotylum CMR1 [42], was maintained on Potato Dextrose Agar (PDA) for three days prior to use. The bean root rot pathogen, R. solani AG2-2 CuHav-Rs18 [43], was maintained on the same media for four days before use. The fungal plug-CLP method was used. Sterile microscopic glass slides were covered with a thin, flat layer of water agar (Bacto agar; Difco) and placed in a plastic Petri dish containing a moist sterile filter paper. An agar plug (diameter = 5 mm) taken from an actively growing colony of R. solani or P. myriotylum and placed on top at the center of each glass slide. Stock solutions of purified CLPs were made by dissolution in Dimethyl sulfoxide (DMSO). Serial dilutions of […], 1 µM, 10 µM, 25 µM and 50 µM were prepared using sterile milliQ water. For each dilution, two droplets (15 μL each) of purified CLP (WLIP, pseudodesmin or viscosinamide) were placed on two sides of the glass slide (about 2 cm from the fungal plug). For the control treatment, 0.5% DMSO was used. All plates were incubated for 48 h (P. myriotylum) or 72 h (R. solani) at 28 °C before evaluation under an Olympus BX51 microscope. The images were processed using TopView software. Using a vernier caliper, the inhibition zones were measured as the distance between the CLP droplet and the growing edge of the pathogen. The growth inhibition effect of pure compounds towards both plant pathogens was expressed relative to the mycelial growth in the control. Five replicates of each slide were used. Representative photos are shown.

R. solani [2] = assay: Pathogen perception experiment (one CLP droplet); format: cell-based; details: one 15 µL CLP droplet 2 cm from the plug, other side blank
Experimental: (§2) For pathogen perception experiments, the afore-described plug-CLP droplet method was employed with slight modifications. Only one 15 µL CLP droplet was introduced 2 cm away from the fungal plug, while the other side of the plug remained blank. Results were assessed by observing whether or not the pathogen only grew towards the CLP droplet or in both directions. Pathogen-CLP interaction was evaluated microscopically and pictures were taken.

P. myriotylum = assay: Pathogen perception experiment (one CLP droplet); format: cell-based, Pythium myriotylum; details: one 15 µL CLP droplet 2 cm from the plug, other side blank
Experimental: as §2

P. myriotylum CMR1 = assay: Fungal plug-CLP droplet assay (growth inhibition and microscopy); format: cell-based, Pythium myriotylum; details: for Effect on growth of P. myriotylum mycelium (inhibition zone): all concentrations tested (100 nM, 1, 10, 25, 50 µM), 48 h, 28 °C, n = 5
Text: as §1

[3] = test system: six Gram-positive bacterial strains; details: cited from earlier work
Text: Viscosinamide and pseudodesmin CLPs are neutral, have similar amino acid (AA) composition and only differ from each other by the stereochemistry on the 5th AA [30]. […] A recent study tested the antibacterial activity of 20 novel synthesized pseudodesmin A analogs and reported a mode of action determined by the macrocycle closed by an ester bond and the critical length of the β-OH fatty acid chain capping the N-terminus.

R. solani [4] = details: cited from earlier work
Text: (§3) Antimicrobial activities of Viscosin-group CLPs have been reported, including antibacterial activity. […] When challenged with viscosinamide, cellular changes were detected in the mycelia of both P. ultimum and R. solani.

Pythium ultimum = details: cited from earlier work
Text: as §3

[5] = purified viscosinamide produced by P. fluorescens DR54

For “White Line-Inducing Principle [WLIP, reference compound]”, the “Visual inhibition zone, R. solani AG 2-2” value ([1]; 100 nM, 72 h, 28 °C) was “slight inhibition zone”, the “Visual inhibition zone, R. solani AG 2-2” value ([1]; highest concentration (50 µM)) was “strong inhibition” and the “Hyphal morphology of R. solani (microscopy)” value (shortened to “Hyphal morphology of R. solani”) ([1]; hyphae growing towards the compound, concentration not specified) was “increased branching as they grew in the direction of the compound”. The “Visual inhibition zone, R. solani AG 2-2” value ([1]; intermediate concentrations) was “unclear”, the “Hyphal morphology of R. solani” value ([1]; upon contact with the compound, concentration not specified) was “disintegration of hyphae was observed” and the “Perception of the CLP by R. solani (direction of growth)” value (R. solani [2]) was “appeared not to recognize WLIP but grew towards it until hyphal disintegration occurred”. The “Perception of the CLP by P. myriotylum (direction of growth)” value (P. myriotylum) was “grew evenly on sides with or without the CLP”, the “Effect on growth of P. myriotylum mycelium (inhibition zone)” value (P. myriotylum CMR1) was “visual inhibition zones that could not be easily measured” and the “Hyphal morphology of P. myriotylum (microscopy)” value (P. myriotylum CMR1; concentration not specified) was “hyphal disintegration, timely evasion and an absence of branching”.
In the case of pseudodesmin A, the “Antibacterial activity, pseudodesmin compared with viscosinamide” value [3] is listed as “equal activity”, the “Visual inhibition zone, R. solani AG 2-2” value ([1]; 100 nM, 72 h, 28 °C) is listed as “visual inhibition zone” and the “Hyphal morphology of R. solani” value ([1]; 0.1, 1, 10, 25 and 50 µM) is listed as “CLP evasion by the pathogen, hyphae distortion and the disintegration of hyphae with debris observed on the slide”. The “Visual inhibition zone, R. solani AG 2-2” value ([1]; higher concentrations of 1, 10, 25 and 50 µM, compared with 100 nM) was “became enhanced”, the “Hyphal morphology of P. myriotylum (microscopy)” value (P. myriotylum CMR1; 100 nM, 10 µM and 25 µM) was “increased/hyper branching, hyphal distortion and CLP evasion” and the “Effect on growth of P. myriotylum mycelium (inhibition zone)” value (P. myriotylum CMR1) was “significantly inhibited pathogen growth”.
For viscosinamide A, the “Antibacterial activity, pseudodesmin compared with viscosinamide” value [3] is listed as “equal activity”, the “Cellular changes in mycelia of R. solani” value (R. solani [4]; fluorescent stains) is listed as “extensive branching, increased hyphal septation and swelling and decreased the hydrophobicity of cell walls and membranes” and the “Effect on growth of R. solani” value (R. solani [4]; [5]) is listed as “reduced fungal growth and the aerial mycelium development”. The “Cellular changes in mycelia of P. ultimum” value (Pythium ultimum; fluorescent stains) was “extensive branching, increased hyphal septation and swelling and decreased the hydrophobicity of cell walls and membranes”, the “Effect on growth of Pythium ultimum” value (Pythium ultimum; [5]) was “reduced fungal growth and the aerial mycelium development” and the “Hyphal morphology of R. solani” value ([1]; 50 µM) was “mycelia distortion and disintegration was observed in combination with a coordinated formation of melanized structures by multiple primary hyphae”. For the same substance, the “Visual inhibition zone, R. solani AG 2-2” value ([1]; all concentrations tested (100 nM-50 µM)) was “no visual inhibition zone was observed in treatments with viscosinamide except at 10 µM”, the “Hyphal morphology of R. solani” value ([1]; all concentrations tested except 50 µM) was “CLP evasion, hyphal distortion and the rupturing of contents” and the “Hyphal morphology of P. myriotylum (microscopy)” value (P. myriotylum CMR1; 50 µM) was “enhanced elongation of primary mycelium and the formation of convergent structures by mycelia”. The “Effect on growth of P. myriotylum mycelium (inhibition zone)” value (P. myriotylum CMR1) was “enhanced the growth of P. myriotylum mycelium without any visible inhibition zone”.
